Numbers after ± are expanded uncertainties.
Key:
[1] = 86 kPa, Liquid, Vibrating tube method
[2] = wn = mass fraction of the nth substance listed; details: 86 kPa, Liquid, Vibrating tube method

Structure (SMILES)	mass density ([1]; 298.15 K)	mass density ([1]; 313.15 K)	mass density ([1]; 323.15 K)	mass density ([1]; 333.15 K)	mass density ([1]; 343.15 K)	mass density ([2]; 298.15 K, w1 = 0.2573)	mass density ([2]; 298.15 K, w1 = 0.3)	mass density ([2]; 298.15 K, w1 = 0.5)	mass density ([2]; 313.15 K, w1 = 0.2573)	mass density ([2]; 313.15 K, w1 = 0.3)	mass density ([2]; 313.15 K, w1 = 0.5)	mass density ([2]; 323.15 K, w1 = 0.3)	mass density ([2]; 323.15 K, w1 = 0.5)	mass density ([2]; 333.15 K, w1 = 0.3)	mass density ([2]; 333.15 K, w1 = 0.5)	mass density ([2]; 343.15 K, w1 = 0.3)	mass density ([2]; 343.15 K, w1 = 0.5)	mass density ([2]; 348.17 K, w1 = 0.2573)
CN(CCO)CCO [N-methyldiethanolamine]	1036.4 ± 4.1 kg/m3	1025.1 ± 4.1 kg/m3	1017.5 ± 4.1 kg/m3	1009.9 ± 4.1 kg/m3	1002.2 ± 4.1 kg/m3													
CCCC[n+]1ccccc1.F[B-](F)(F)F [1-butylpyridinium tetrafluoroborate]	1213.9 ± 4.2 kg/m3	1203.8 ± 4.2 kg/m3	1197 ± 4.2 kg/m3	1190.3 ± 4.2 kg/m3	1183.6 ± 4.2 kg/m3													
CN(CCO)CCO [N-methyldiethanolamine] + O						1020.5 ± 4 kg/m3	1024.7 ± 4 kg/m3	1042.5 ± 4 kg/m3	1013.5 ± 4 kg/m3	1017.1 ± 4 kg/m3	1032.8 ± 4 kg/m3	1009.6 ± 4 kg/m3	1026 ± 4 kg/m3	1002.7 ± 4 kg/m3	1018.7 ± 4 kg/m3	995.1 ± 4 kg/m3	1011.2 ± 4 kg/m3	988.9 ± 4 kg/m3

— the NIST ThermoML archive (doi:10.1021/acs.jced.8b00142)
